Laboratory results reported in US9993505B2, “Innervation of engineered structures” (WAKE FOREST UNIVERSITY HEALTH SCIENCES, priority 2012, dated 2018).

Assays:
[1] = system: intrinsically innervated internal anal sphincter (IAS) smooth muscle construct; test: Real time force generation of bioengineered IAS construct, initially intrinsically innervated (Example 1); assay type: cell-based, rabbit
[2] = system: initially non-innervated internal anal sphincter (IAS) smooth muscle construct; test: Real time force generation of bioengineered IAS construct, initially non-innervated, placed 1 mm away from the innervated construct (Example 1); assay type: cell-based, rabbit
[3] = system: intrinsically innervated rabbit colon circular smooth muscle construct; test: Real time force generation of bioengineered colon smooth muscle construct, intrinsically innervated (Example 2); assay type: cell-based
[4] = system: initially non-innervated rabbit colon circular smooth muscle construct; test: Real time force generation of bioengineered colon smooth muscle construct, initially non-innervated (Example 2); assay type: cell-based

CN1[C@@H]2CC[C@H]1C[C@@H](OC(=O)C(CO)c1ccccc1)C2 (some centres unmarked) [atropine]
inhibition of acetylcholine-induced force generation by pre-treatment [1]: 90% | inhibition of acetylcholine-induced force generation by pre-treatment [2]: 75%

vasoactive intestinal peptide [VIP]
maximal relaxation induced by VIP ([3]; 1 μM VIP, innervated colon constructs): 145±15 μN | maximal relaxation induced by VIP ([4]; 1 μM VIP, non-innervated colon constructs): 120±18 μN

NC1=N[C@H](O)[C@H]2[C@H]3O[C@]4(O)O[C@@H]([C@@H](O)[C@@]2(N1)[C@@H]4O)[C@]3(O)CO [TTX, tetrodotoxin]
inhibition of EFS-induced relaxation by pre-treatment [1]: completely inhibited | inhibition of acetylcholine-induced force generation by pre-treatment [1]: 58% | inhibition of EFS-induced relaxation by pre-treatment [2]: completely inhibited | inhibition of acetylcholine-induced force generation by pre-treatment [2]: 40% | attenuation of peak maximal Ach contraction in the presence of TTX [3]: 50-60% | effect of TTX preincubation on response to EFS [3]: completely abolished | inhibition of VIP-induced relaxation in the presence of TTX [3]: 60% | effect of TTX on EFS-induced relaxation [4]: completely blocked | effect of TTX on maximal Ach contraction [4]: reduced the maximal contraction | inhibition of VIP-induced relaxation in the presence of TTX [4]: 50%

[Cl-].[K+] [KCl, potassium chloride]
average contraction induced by KCl [3]: 300±24 μN | average contraction induced by KCl [4]: 224±42 μN

CC(=O)OCC[N+](C)(C)C [Acetylcholine, acetylcholine]
force generation induced by acetylcholine ([1]; Acetylcholine 1 μM, day 20, innervated IAS construct): 153 μN | force generation induced by acetylcholine ([2]; Acetylcholine 1 μM, day 20, initially non-innervated IAS construct): 80 μN | average contraction induced by Ach ([3]; 1 μM Ach, innervated colon constructs): 150±24 μN | average contraction induced by Ach ([4]; 1 μM Ach, non-innervated colon constructs): 130±28 μN
